According to patent US9458137B2, “Substituted indol-5-ol derivatives and their therapeutical applications” (NantBioScience, Inc., priority 2012, dated 2016):

Test system: human MV411 human acute myelogenous leukemia (AML) xenograft
Assay type: in vivo, SCID mice
Details: 25, 50 mg/kg, 5-day on, two-day off for two cycles; female SCID mice
Method: The objective of the first study was to evaluate antitumor activities of the novel multiple-kinase inhibitor NTW-3475 against human MV411 human acute myelogenous leukemia (AML) xenograft model in female SCID mice.
Four or six animals were randomly assigned to each study group. Each animal was injected subcutaneously in the left and right flank area with 0.1 ml of 1.0×10^8 MV411 cells per mL
Each test or control animal was placed on a 5-day on, two-day off for two cycles of vehicle negative control or 25, 50 mg/kg of NTW-3475. Tumor growth was measured with a digital hand held caliper twice weekly (once tumor emerges) prior to the first dosing and then two to three times weekly until euthanized. Animals were weighed prior to tumor cell injection, prior to dosing, two to three times weekly with tumor growth measurements, and prior to euthanasia.
FIGS. 27-32 depict the results of various concentrations of NTW-3456 on tumor growth in scid mouse/xenograft model of AML using MV411 cells. […] This invention is characterized as it is here was a correlation between the inhibition of the pFLT3 kinase and growth control.

## Cc1cc2c(F)c(Oc3nc(Nc4cc(C5CC5)[nH]n4)cc(N4CCN(C)CC4)n3)cc(F)c2[nH]1 [NTW-3475]
  anti-tumor effect against AML: strong anti-tumor effect
